Target: T1, piperonal-converting enzyme (PceSML), FAD site on PceM (Burkholderia sp. CT39-3, UniProt A0A1L7N251)
T1 construct: same recombinant complex as P1 (N-terminal His tag on PceS, host Burkholderia sp. CT39-3); with Piperonal-converting enzyme large subunit (PceL); Piperonal-converting enzyme small subunit (PceS)
T1 sequence (A0A1L7N251 1-334): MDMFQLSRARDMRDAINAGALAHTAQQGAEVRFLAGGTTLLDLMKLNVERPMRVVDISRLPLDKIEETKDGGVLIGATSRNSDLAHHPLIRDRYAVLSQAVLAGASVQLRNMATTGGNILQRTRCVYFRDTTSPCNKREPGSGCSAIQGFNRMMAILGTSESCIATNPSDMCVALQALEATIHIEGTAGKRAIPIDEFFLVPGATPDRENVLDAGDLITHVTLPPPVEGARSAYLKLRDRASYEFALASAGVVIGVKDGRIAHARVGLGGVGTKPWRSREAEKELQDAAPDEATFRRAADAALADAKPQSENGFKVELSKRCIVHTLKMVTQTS
T1 sequence (A0A1L7N257 1-740 partner): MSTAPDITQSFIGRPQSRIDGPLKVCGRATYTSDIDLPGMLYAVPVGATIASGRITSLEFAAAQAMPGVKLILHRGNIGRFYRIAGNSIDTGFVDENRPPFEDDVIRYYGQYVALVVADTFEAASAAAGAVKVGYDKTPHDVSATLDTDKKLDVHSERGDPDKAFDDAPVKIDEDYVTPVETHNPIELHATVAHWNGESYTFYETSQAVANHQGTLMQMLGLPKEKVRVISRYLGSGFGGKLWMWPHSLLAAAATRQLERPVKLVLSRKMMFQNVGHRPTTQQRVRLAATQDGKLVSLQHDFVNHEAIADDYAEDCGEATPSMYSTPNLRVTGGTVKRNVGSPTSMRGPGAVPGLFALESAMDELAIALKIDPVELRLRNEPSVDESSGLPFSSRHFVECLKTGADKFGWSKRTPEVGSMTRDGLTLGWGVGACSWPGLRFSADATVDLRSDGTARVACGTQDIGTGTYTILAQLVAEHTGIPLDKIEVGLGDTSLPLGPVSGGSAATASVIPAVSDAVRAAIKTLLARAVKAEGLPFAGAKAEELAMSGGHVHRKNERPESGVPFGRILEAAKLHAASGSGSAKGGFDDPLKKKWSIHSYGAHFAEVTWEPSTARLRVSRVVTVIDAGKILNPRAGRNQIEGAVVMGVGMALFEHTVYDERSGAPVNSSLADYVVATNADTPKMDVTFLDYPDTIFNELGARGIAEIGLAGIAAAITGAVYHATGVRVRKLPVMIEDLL
T1 sequence (A0A1L7N258 1-185 partner): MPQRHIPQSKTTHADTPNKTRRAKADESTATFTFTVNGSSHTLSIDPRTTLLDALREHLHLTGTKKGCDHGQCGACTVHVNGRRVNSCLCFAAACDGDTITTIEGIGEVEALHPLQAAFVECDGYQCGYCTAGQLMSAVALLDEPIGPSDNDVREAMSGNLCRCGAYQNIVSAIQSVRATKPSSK
Assay: HPLC of flavin released from purified enzyme by HClO4
Type: binding
Conditions: as-purified cofactor

Compound: Cc1cc2nc3c(=O)[nH]c(=O)nc-3n(C[C@H](O)[C@H](O)[C@H](O)COP(=O)(O)OP(=O)(O)OC[C@H]3O[C@@H](n4cnc5c(N)ncnc54)[C@H](O)[C@@H]3O)c2cc1C [FAD]
- HPLC of flavin released from purified enzyme by HClO4: FAD was identified as the flavin cofactor (Fig. 3A)
